Key:
SMARCA4-HiBiT = target: T1, SMARCA4-HiBiT (Homo sapiens, UniProt P51532); test: SMARCA4 HiBiT degradation assay in HeLa cells; type: cell-based; settings: 18 hours incubation; for DC50: read-out: HeLa-HiBit-SM4 DC50; for Dmax: HeLa, read-out: HeLa-HiBit-SM4 Dmax (%)
T1 construct: SMARCA4-HiBiT knock-in Hela monoclonal cell (CS3023226); host or cells: HeLa monoclonal knock-in line (CRISPR HiBiT knock-in at the endogenous locus, heterozygous)
How it was run: (§1)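 HeLa monoclonal lines with heterozygous HiBiT knock-in were seeded at 2500 cells/well in EMEM with 10% FBS and treated with compound for 18 h at 37 °C. Remaining tagged protein was measured by Nano-Glo HiBiT lytic luminescence after 30–60 min at RT, and values came from curve fitting.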

SMARCA2-HiBiT = target: T2, SMARCA2-HiBiT (Homo sapiens, UniProt P51531); test: SMARCA2 HiBiT degradation assay in HeLa cells; type: cell-based; settings: 18 hours incubation; for DC50: read-out: HeLa_HiBit-SM2 DC50; for Dmax: HeLa, read-out: HeLa-HiBit-SM2 Dmax (%)
T2 construct: SMARCA2-HiBiT knock-in Hela monoclonal cell (CS302366); host or cells: HeLa monoclonal knock-in line (CRISPR HiBiT knock-in at the endogenous locus, heterozygous)
T2 sequence (P51531 whole entry): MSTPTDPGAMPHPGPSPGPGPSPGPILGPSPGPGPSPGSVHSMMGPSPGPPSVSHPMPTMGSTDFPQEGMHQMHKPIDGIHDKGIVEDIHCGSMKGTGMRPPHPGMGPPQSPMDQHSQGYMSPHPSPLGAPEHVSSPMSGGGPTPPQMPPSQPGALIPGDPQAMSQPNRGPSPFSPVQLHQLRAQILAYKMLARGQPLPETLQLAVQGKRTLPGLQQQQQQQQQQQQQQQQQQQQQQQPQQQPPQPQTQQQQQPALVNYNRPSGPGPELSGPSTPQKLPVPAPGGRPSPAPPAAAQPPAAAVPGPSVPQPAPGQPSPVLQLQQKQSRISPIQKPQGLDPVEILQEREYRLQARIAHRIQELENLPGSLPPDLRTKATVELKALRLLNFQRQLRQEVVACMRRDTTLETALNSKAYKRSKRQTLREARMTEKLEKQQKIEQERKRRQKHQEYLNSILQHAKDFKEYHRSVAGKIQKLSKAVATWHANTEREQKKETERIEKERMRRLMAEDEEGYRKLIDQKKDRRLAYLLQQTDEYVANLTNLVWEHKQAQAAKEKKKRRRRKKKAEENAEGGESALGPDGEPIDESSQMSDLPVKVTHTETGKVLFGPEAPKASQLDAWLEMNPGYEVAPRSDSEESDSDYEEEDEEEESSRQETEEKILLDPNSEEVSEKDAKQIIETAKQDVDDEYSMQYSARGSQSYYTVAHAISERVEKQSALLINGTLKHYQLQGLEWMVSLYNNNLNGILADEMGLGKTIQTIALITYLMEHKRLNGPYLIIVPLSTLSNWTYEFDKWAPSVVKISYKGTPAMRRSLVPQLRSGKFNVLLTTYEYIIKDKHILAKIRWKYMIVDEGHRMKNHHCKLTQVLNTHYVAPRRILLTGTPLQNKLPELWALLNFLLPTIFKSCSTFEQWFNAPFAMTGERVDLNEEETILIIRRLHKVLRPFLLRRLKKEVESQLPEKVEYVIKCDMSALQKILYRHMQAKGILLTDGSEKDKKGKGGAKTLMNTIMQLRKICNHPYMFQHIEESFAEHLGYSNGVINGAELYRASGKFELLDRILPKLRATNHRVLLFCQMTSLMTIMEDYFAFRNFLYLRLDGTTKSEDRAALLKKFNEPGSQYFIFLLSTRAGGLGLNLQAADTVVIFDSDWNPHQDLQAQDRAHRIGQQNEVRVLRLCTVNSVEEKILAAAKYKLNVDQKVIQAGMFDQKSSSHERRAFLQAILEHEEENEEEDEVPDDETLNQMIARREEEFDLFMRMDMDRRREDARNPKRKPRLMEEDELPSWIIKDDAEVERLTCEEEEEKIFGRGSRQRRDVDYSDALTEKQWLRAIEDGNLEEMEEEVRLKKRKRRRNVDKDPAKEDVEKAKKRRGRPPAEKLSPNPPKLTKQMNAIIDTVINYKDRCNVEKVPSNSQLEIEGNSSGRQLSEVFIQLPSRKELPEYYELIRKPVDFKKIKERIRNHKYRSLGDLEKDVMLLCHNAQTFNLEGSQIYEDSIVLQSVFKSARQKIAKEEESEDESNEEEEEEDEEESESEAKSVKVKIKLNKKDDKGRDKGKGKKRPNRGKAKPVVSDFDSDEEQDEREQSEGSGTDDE
How it was run: as §1

T1 sequence (P51532 whole entry): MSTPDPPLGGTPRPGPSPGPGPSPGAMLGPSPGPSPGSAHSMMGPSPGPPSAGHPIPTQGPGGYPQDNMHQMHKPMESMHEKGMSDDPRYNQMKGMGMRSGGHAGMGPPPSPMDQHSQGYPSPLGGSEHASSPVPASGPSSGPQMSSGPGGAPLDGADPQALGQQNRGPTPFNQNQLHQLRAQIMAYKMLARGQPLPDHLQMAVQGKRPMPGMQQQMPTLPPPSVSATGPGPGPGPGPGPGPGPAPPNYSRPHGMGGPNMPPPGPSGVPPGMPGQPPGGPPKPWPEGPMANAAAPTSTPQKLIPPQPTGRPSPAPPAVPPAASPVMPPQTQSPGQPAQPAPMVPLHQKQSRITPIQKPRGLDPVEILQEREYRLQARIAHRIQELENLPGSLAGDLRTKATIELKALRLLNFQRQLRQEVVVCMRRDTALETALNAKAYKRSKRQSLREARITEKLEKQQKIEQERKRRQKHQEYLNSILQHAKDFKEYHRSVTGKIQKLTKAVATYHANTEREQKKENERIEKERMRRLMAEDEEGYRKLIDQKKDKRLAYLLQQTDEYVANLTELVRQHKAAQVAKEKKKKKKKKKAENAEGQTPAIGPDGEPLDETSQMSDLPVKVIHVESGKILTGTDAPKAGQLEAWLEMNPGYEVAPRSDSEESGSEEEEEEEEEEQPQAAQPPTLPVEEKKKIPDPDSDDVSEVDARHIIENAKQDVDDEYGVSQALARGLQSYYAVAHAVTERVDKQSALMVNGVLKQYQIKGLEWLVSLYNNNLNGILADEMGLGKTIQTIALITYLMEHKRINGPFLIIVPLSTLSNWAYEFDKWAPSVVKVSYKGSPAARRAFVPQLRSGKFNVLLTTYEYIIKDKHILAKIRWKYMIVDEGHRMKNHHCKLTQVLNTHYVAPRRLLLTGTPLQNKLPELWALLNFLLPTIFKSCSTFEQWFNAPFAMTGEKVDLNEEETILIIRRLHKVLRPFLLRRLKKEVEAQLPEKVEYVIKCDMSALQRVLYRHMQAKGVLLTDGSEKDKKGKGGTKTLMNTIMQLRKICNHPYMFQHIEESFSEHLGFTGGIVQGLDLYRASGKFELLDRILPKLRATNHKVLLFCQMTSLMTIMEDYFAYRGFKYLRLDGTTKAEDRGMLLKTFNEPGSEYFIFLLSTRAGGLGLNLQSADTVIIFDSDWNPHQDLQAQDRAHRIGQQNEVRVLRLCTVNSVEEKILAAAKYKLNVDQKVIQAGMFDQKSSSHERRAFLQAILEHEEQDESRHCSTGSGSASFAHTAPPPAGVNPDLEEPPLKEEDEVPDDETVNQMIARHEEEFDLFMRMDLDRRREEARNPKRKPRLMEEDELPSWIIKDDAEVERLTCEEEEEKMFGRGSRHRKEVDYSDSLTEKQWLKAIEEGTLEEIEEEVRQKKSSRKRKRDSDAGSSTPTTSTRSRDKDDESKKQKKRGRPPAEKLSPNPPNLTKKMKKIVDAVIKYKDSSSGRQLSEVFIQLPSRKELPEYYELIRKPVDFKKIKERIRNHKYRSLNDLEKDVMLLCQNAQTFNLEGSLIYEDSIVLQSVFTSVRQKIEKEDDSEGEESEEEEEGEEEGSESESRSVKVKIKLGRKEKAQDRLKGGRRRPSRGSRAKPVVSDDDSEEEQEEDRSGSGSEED

Structure (SMILES)	HeLa-HiBit-SM4 Dmax (%) (SMARCA4-HiBiT)	DC50 (SMARCA4-HiBiT) [nM]	DC50 (SMARCA2-HiBiT) [nM]	Dmax (SMARCA2-HiBiT) [%]	Dmax (SMARCA4-HiBiT) [%]
O=C1CCC(N2C(=O)c3ccc(N4CC[C@H](CN5CCC(C(=O)N6CCN7c8cc(-c9cc(F)ccc9O)nnc8NC[C@H]7C6)CC5)[C@@H](F)C4)cc3C2=O)C(=O)N1 (stereo partly drawn) [Example 279, 2-(2,6-dioxopiperidin-3-yl)-5-((3R,4R)-3-fluoro-4-((4-((S)-2-(5-fluoro-2-hydroxyphenyl)-6,6a,7,8,9,10-hexahydro-5H-pyrazino[1′,2′:4,5]pyrazino[2,3-c]pyridazine-8-carbonyl)piperidin-1-yl)methyl)piperidin-1-yl)isoindoline-1,3-dione]	C (C=50%<Dmax<=75%)	< 10	< 10	> 85	–
O=C1CCC(N2C(=O)c3ccc(N4C[C@H]5CC(N6CCC(CN7CCN8c9cc(-c%10ccccc%10O)nnc9NC[C@H]8C7)CC6)[C@H]5C4)cc3C2=O)C(=O)N1 (stereo partly drawn) [Example 190, 2-(2,6-dioxopiperidin-3-yl)-5-[(1S,5R)-6-[4-[[(10S)-4-(2-hydroxyphenyl)-1,5,6,8,12-pentazatricyclo[8.4.0.02,7]tetradeca-2(7),3,5-trien-12-yl]methyl]piperidin-1-yl]-3-azabicyclo[3.2.0]heptan-3-yl]isoindole-1,3-dione]	–	< 10	< 10	75 to 85	75 to 85
COC1(CN2C[C@@H]3[C@@H](CN4CCN5c6cc(-c7ccccc7O)nnc6NC[C@H]5C4)[C@@H]3C2)CCN(c2ccc3c(c2)C(=O)N(C2CCC(=O)NC2=O)C3=O)CC1 (stereo partly drawn) [Example 89, 2-(2,6-dioxopiperidin-3-yl)-5-(4-(((1R,5S,6s)-6-(((S)-2-(2-hydroxyphenyl)-5,6,6a,7,9,10-hexahydro-8H-pyrazino[1′,2′:4,5]pyrazino[2,3-c]pyridazin-8-yl)methyl)-3-azabicyclo[3.1.0]hexan-3-yl)methyl)-4-methoxypiperidin-1-yl)isoindoline-1,3-dione]	–	< 10	< 10	75 to 85	50 to 75
O=C1CCC(N2C(=O)c3cccc(N4CCN(CCCN5CCC(N6CCN7c8cc(-c9ccccc9O)nnc8NC[C@H]7C6)CC5)CC4)c3C2=O)C(=O)N1 (stereo partly drawn) [Example 69, 2-(2,6-dioxopiperidin-3-yl)-4-(4-(3-(4-((S)-2-(2-hydroxyphenyl)-5,6,6a,7,9,10-hexahydro-8H-pyrazino[1′,2′:4,5]pyrazino[2,3-c]pyridazin-8-yl)piperidin-1-yl)propyl)piperazin-1-yl)isoindoline-1,3-dione]	–	< 10	< 10	> 85	> 85
O=C1CCC(N2C(=O)c3ccc(N4CC(CCN5CCC(CN6CCN7c8cc(-c9ccccc9O)nnc8NC[C@H]7C6)CC5)C4)cc3C2=O)C(=O)N1 (stereo partly drawn) [Example 275, 2-(2,6-dioxopiperidin-3-yl)-5-(3-(2-(4-(((S)-2-(2-hydroxyphenyl)-5,6,6a,7,9,10-hexahydro-8H-pyrazino[1′,2′:4,5]pyrazino[2,3-c]pyridazin-8-yl)methyl)piperidin-1-yl)ethyl)azetidin-1-yl)isoindoline-1,3-dione]	–	< 10	< 10	75 to 85	75 to 85
CN(CCN1CCC(N2CCN3c4cc(-c5ccccc5O)nnc4NC[C@H]3C2)CC1)C1CCN(c2ccc3c(c2)C(=O)N(C2CCC(=O)NC2=O)C3=O)CC1 (stereo partly drawn) [Example 158, 2-(2,6-dioxopiperidin-3-yl)-5-(4-((2-(4-((S)-2-(2-hydroxyphenyl)-5,6,6a,7,9,10-hexahydro-8H-pyrazino[1′,2′:4,5]pyrazino[2,3-c]pyridazin-8-yl)piperidin-1-yl)ethyl)(methyl)amino)piperidin-1-yl)isoindoline-1,3-dione]	–	< 10	< 10	> 85	> 85
CC1(C)CN(CC2CCN(c3ccc4c(c3)C(=O)N(C3CCC(=O)NC3=O)C4)CC2)CCN1C(=O)N1CCN2c3cc(-c4ccccc4O)nnc3NC[C@H]2C1 (stereo partly drawn) [Example 105, 3-(6-(4-((4-((S)-2-(2-hydroxyphenyl)-6,6a,7,8,9,10-hexahydro-5H-pyrazino[1′,2′:4,5]pyrazino[2,3-c]pyridazine-8-carbonyl)-3,3-dimethylpiperazin-1-yl)methyl)piperidin-1-yl)-1-oxoisoindolin-2-yl)piperidine-2,6-dione]	–	< 10	< 10	> 85	> 85
O=C1CCC(N2C(=O)c3ccc(N4CCC(CN5CCC(CN6CCN7c8cc(-c9ccccc9O)nnc8NC[C@H]7C6)CC5)CC4)cc3C2=O)C(=O)N1 (stereo partly drawn) [Example 31, 2-(2,6-dioxopiperidin-3-yl)-5-(4-((4-(((S)-2-(2-hydroxyphenyl)-5,6,6a,7,9,10-hexahydro-8H-pyrazino[1′,2′:4,5]pyrazino[2,3-c]pyridazin-8-yl)methyl)piperidin-1-yl)methyl)piperidin-1-yl)isoindoline-1,3-dione]	–	< 10	< 10	> 85	> 85
O=C1CCC(N2C(=O)c3ccc(N4CCN(CC5CCN(C(=O)N6CCN7c8cc(-c9ccccc9O)nnc8NC[C@H]7C6)CC5)CC4)cc3C2=O)C(=O)N1 (stereo partly drawn) [Example 142, 2-(2,6-dioxopiperidin-3-yl)-5-(4-((1-((S)-2-(2-hydroxyphenyl)-6,6a,7,8,9,10-hexahydro-5H-pyrazino[1′,2′:4,5]pyrazino[2,3-c]pyridazine-8-carbonyl)piperidin-4-yl)methyl)piperazin-1-yl)isoindoline-1,3-dione]	–	10 to 100	< 10	75 to 85	50 to 75
C[C@H]1CN2c3cc(-c4ccccc4O)nnc3NC[C@H]2CN1C(=O)N1CCN(CC2CCN(c3ccc4c(c3)C(=O)N(C3CCC(=O)NC3=O)C4)CC2)CC1 (stereo partly drawn) [Example 99, 3-(6-(4-((4-((6aS,9S)-2-(2-hydroxyphenyl)-9-methyl-6,6a,7,8,9,10-hexahydro-5H-pyrazino[1′,2′:4,5]pyrazino[2,3-c]pyridazine-8-carbonyl)piperazin-1-yl)methyl)piperidin-1-yl)-1-oxoisoindolin-2-yl)piperidine-2,6-dione]	–	10 to 100	< 10	> 85	75 to 85
O=C1CCC(N2C(=O)c3ccc(N4CCCC(CN5CCO[C@@H](CN6CCN7c8cc(-c9ccccc9O)nnc8NC[C@H]7C6)C5)C4)cc3C2=O)C(=O)N1 (stereo partly drawn) [Example 79, 2-(2,6-dioxopiperidin-3-yl)-5-(3-(((S)-2-(((S)-2-(2-hydroxyphenyl)-5,6,6a,7,9,10-hexahydro-8H-pyrazino[1′,2′:4,5]pyrazino[2,3-c]pyridazin-8-yl)methyl)morpholino)methyl)piperidin-1-yl)isoindoline-1,3-dione]	–	< 10	< 10	75 to 85	75 to 85
O=C1CCC(N2Cc3ccc(N4CCC(CN5CCN(C(=O)N6CCN7c8cc(-c9ccccc9O)nnc8NC[C@H]7C6)CC5C(F)(F)F)CC4)cc3C2=O)C(=O)N1 (stereo partly drawn) [Example 102, 3-(6-(4-((4-((S)-2-(2-hydroxyphenyl)-6,6a,7,8,9,10-hexahydro-5H-pyrazino[1′,2′:4,5]pyrazino[2,3-c]pyridazine-8-carbonyl)-2-(trifluoromethyl)piperazin-1-yl)methyl)piperidin-1-yl)-1-oxoisoindolin-2-yl)piperidine-2,6-dione]	–	< 10	< 10	> 85	75 to 85
O=C1CCC(N2Cc3cc(C4CCN(C5CCCN(CCN6CCN7c8cc(-c9ccccc9O)nnc8NC[C@H]7C6)C5)CC4)ccc3C2=O)C(=O)N1 (stereo partly drawn) [Example 211, 3-(5-(1′-(2-((S)-2-(2-hydroxyphenyl)-5,6,6a,7,9,10-hexahydro-8H-pyrazino[1′,2′:4,5]pyrazino[2,3-c]pyridazin-8-yl)ethyl)-[1,3′-bipiperidin]-4-yl)-1-oxoisoindolin-2-yl)piperidine-2,6-dione]	–	< 10	< 10	> 85	> 85
O=C1CCC(N2Cc3ccc(N4CCC(CN5CCN(C(=O)N6CCN7c8cc(-c9cc(F)ccc9O)nnc8NC[C@H]7C6)CC5)CC4)cc3C2=O)C(=O)N1 (stereo partly drawn) [Example 282, 3-(6-(4-((4-((S)-2-(5-fluoro-2-hydroxyphenyl)-6,6a,7,8,9,10-hexahydro-5H-pyrazino[1′,2′:4,5]pyrazino[2,3-c]pyridazine-8-carbonyl)piperazin-1-yl)methyl)piperidin-1-yl)-1-oxoisoindolin-2-yl)piperidine-2,6-dione]	–	< 10	< 10	> 85	75 to 85
O=C1CCC(N2Cc3ccc(N4CC[C@H](CN5CCC(C(=O)N6CCN7c8cc(-c9ccccc9O)nnc8NC[C@H]7C6)CC5)[C@@H](F)C4)cc3C2=O)C(=O)N1 (stereo partly drawn) [Example 261, 3-(6-((3R,4R)-3-fluoro-4-((4-((S)-2-(2-hydroxyphenyl)-6,6a,7,8,9,10-hexahydro-5H-pyrazino[1′,2′:4,5]pyrazino[2,3-c]pyridazine-8-carbonyl)piperidin-1-yl)methyl)piperidin-1-yl)-1-oxoisoindolin-2-yl)piperidine-2,6-dione]	–	10 to 100	< 10	> 85	75 to 85

Reference: patent US12448389B2, “BRM targeting compounds and associated methods of use” (Prelude Therapeutics Incorporated, priority 2020, dated 2025)
